The results in this text go back to patent US8916527B2, “Antibiotic macrocycle compounds and methods of manufacture and use thereof” (Optimer Pharmaceuticals, Inc., priority 2007, dated 2014).

Series [1] concerns C. difficile ATCC strain 700057. The series is described as follows: Effect of fecal material on in vitro activity, microbroth dilution MIC. The settings on record: for MIC: Clostridioides difficile. It is filed as cell-based. Background: Broth dilution looks for growth in wells or tubes with falling amounts of substance.
In series [2] the test system is Bifidiobacterium longum, ATCC 15707. The series is described as follows: MIC, agar dilution method. It is filed as cell-based. The settings on record: Table 1 gram positive GI flora. In general terms: In agar dilution, organisms are placed on agar that contains the substance at set levels.
The test system of series [3] is Clostridium difficile, ATCC 43255. Put plainly: MIC, agar dilution method. Format: cell-based. The settings on record: Clostridioides difficile, ATCC43255. The method, then:
(§1) Agar Dilution Method: (1)
(§2) This method was used for anaerobic organisms (Bacteroides, Clostridium, Bifidiobacteria, Prevotella, Fusobacterium, Peptococcus, Peptostreptococcus, Veillonella) and microaerophilic Lactobacillus spp, all of which were purchased form American Type Culture Collection (ATCC):
(§3) 1. Two fold dilutions of compounds were made in Brucella agar supplemented with hemin, vitamin K and 5% laked sheep blood to achieve a final concentration range from 0.016 μg/mL to 16 μg/mL.
(§4) 3. Plates were incubated in an anaerobic chamber at 35° C. for 48 hours. For the Lactobacillus strains, Mueller Hinton Agar and an incubation atmosphere of 5% CO2 were used.
(§5) 4. The lowest concentration of an antibiotic showing no growth or marked reduction in growth was read as the MIC.

Series [4] relates to Clostridium difficile, ATCC 700057. The series is described as follows: MIC, agar dilution method. Format: cell-based. To be noted: Clostridioides difficile, ATCC700057. The procedure: as §1, §2, §3, §4, §5
The test system of series [5] is Clostridium perfringens, ATCC 13124. The series is described as follows: microbe, parasite or virus in culture. It is filed as cell-based. The settings on record: ATCC13124.
Series [6] deals with Finegoldia (formerly Peptococcus) magna, ATCC 29328. Put plainly: MIC, agar dilution method. Format: cell-based. The settings on record: Finegoldia magna ATCC 29328.
The test system of series [7] is Lactobacillus. casei, ATCC 393. Put plainly: MIC, agar dilution method. To be noted: Lacticaseibacillus casei, ATCC393. It is filed as cell-based.
Series [8] relates to Lactobacillus acidophilus, ATCC 4356. The series is described as follows: MIC, agar dilution method. It is filed as cell-based. The settings on record: ATCC4356.
Series [9] deals with Lactobacillus rhamnosus, ATCC 7496. Put plainly: MIC, agar dilution method. Format: cell-based.
The test system of series [10] is Micromonas (formerly Peptostreptococcus) micros, ATCC 33270. Put plainly: MIC, agar dilution method. It is filed as cell-based. To be noted: Parvimonas micra, ATCC33270; Micromonas micros ATCC 33270.
Series [11] concerns Peptoniphilus (formerly Peptococcus) asaccharolyticus, ATCC 29743. The series is described as follows: MIC, agar dilution method. Format: cell-based. To be noted: Peptoniphilus asaccharolyticus ATCC 29743.
Series [12] relates to Peptostreptococcus anaerobius, ATCC 27337. Put plainly: MIC, agar dilution method. Format: cell-based. The settings on record: ATCC27337.
Series [13] deals with ORG 150 B. fragilis 25285. Put plainly: MIC, anaerobic panel, agar dilution method. It is filed as cell-based. To be noted: Bacteroides fragilis, Table 3, read-out: MIC, panel of anaerobic bacteria.
For series [14] the following is noted: in vivo, po.
Series [15] can be described thus: physchem. Format: physicochemical. To be noted: water; read-out: Aqueous solubility.
In series [16] the test system is gram positive bacteria (C. difficile, C. perfringenes, B. longum, F. magna, P. asaccharolyticus, P. anaerobius, M. micros, L. casei). It is filed as cell-based.
Series [17] concerns S. aureus. Put plainly: MIC profiling. The settings on record: Staphylococcus aureus.
The subject of series [18] is E. faecium. Put plainly: MIC profiling. The settings on record: Enterococcus faecium.
The test system of series [19] is Enterococcus faecium, ATCC 19434. Put plainly: MIC, microbroth dilution method.
The subject of series [20] is Enterococcus faecium, Vancomycin resistant clinical strain ORG#360. Put plainly: MIC, microbroth dilution method.
The test system of series [21] is Enterococcus faecium, Vancomycin resistant clinical strain ORG#364. Put plainly: MIC, microbroth dilution method.
The test system of series [22] is Enterococcus faecium, Vancomycin resistant clinical strain ORG#534. The series is described as follows: MIC, microbroth dilution method.
Series [23] concerns Staphylococcus aureus, ATCC 29213. Put plainly: MIC, microbroth dilution method.
The test system of series [24] is Staphylococcus aureus, ATCC 33591 (Methicilin resistant). Put plainly: MIC, microbroth dilution method.
Series [25] relates to Staphylococcus aureus, Methicilin resistant clinical strain ORG#578. Put plainly: MIC, microbroth dilution method.
Series [26] has as its system Staphylococcus epidennidis, clinical strain ORG#365. The series is described as follows: MIC, microbroth dilution method.
Series [27] has as its system Streptococcus pneumoniae, ATCC 49619. The series is described as follows: MIC, microbroth dilution method. The settings on record: ATCC49619.
In series [28] the test system is Streptococcus pyogenes, ATCC 19615. The series is described as follows: MIC, microbroth dilution method.
For series [29], the system named is ORG 83 E. faecalis ATCC 29212. The series is described as follows: MIC, aerobic panel, microbroth dilution method. To be noted: Enterococcus faecalis, ATCC29212, read-out: Aerobic Panel MIC.
The subject of series [30] is ORG 84 E. faecium ATCC 700221 VRE. Put plainly: MIC, aerobic panel, microbroth dilution method. The settings on record: Enterococcus faecium, read-out: Aerobic Panel MIC.
In series [31] the test system is ORG 99 S. epidermidis ATCC 12228. The series is described as follows: MIC, aerobic panel, microbroth dilution method. The settings on record: Staphylococcus epidermidis, ATCC12228, read-out: Aerobic Panel MIC.

Like-named read-outs stand apart in the source and are kept apart here.

As for `CN[C@H](CC(C)C)C(=O)N[C@H]1C(=O)N[C@@H](CC(N)=O)C(=O)N[C@H]2C(=O)N[C@H]3C(=O)N[C@H](C(=O)N[C@H](C(=O)O)c4cc(O)cc(O)c4-c4cc3ccc4O)[C@H](O)c3ccc(c(Cl)c3)Oc3cc2cc(c3O[C@@H]2O[C@H](CO)[C@@H](O)[C@H](O)[C@H]2O[C@H]2C[C@](C)(N)[C@H](O)[C@H](C)O2)Oc2ccc(cc2Cl)[C@H]1O` [Vancomycin, reference compound], in [1], the “Fold increase in MIC” value amounted to 4x and the “fold increase in MIC values in the presence of 5% fecal material” value is recorded as “four fold”. Further, the MIC in series [1] (ATCC700057, read-out: MIC in the presence of 5% fecal material) was determined as 8 mg/L.

What is called solubility is the concentration that dissolves in the medium under given conditions. `CCc1c(Cl)c(O)c(Cl)c(O)c1C(=O)O[C@H]1[C@H](O)[C@H](OC)[C@H](OC/C2=C\C=C\C[C@H](O)/C(C)=C/[C@H](CC)[C@@H](O[C@@H]3OC(C)(C)[C@@H](O)[C@H](O)[C@@H]3O)/C(C)=C/C(C)=C/C[C@@H]([C@@H](C)O)OC2=O)O[C@@H]1C` [Formula II]: the MIC in series [2] is 1 mg/L; in series [3], 4 mg/L; in series [4] (Clostridium difficile ATCC 700057, Table 1 gram positive GI flora, read-out: MIC), 2 mg/L; in series [4] (ORG 830 C. difficile ATCC 700057, Table 3, read-out: MIC, panel of anaerobic bacteria) it was 0.5 to 1 mg/L; in series [5] it was 1 mg/L; in [6], 8 mg/L. Further, the MIC was 8 mg/L in series [7]; more than 16 mg/L in series [8]; more than 16 mg/L in series [9] (Lacticaseibacillus rhamnosus, ATCC7496, L. rhamnosus, read-out: MIC); more than 16 mg/L in series [9] (Lactobacillus rhamnosus ATCC 7496); 1 mg/L in series [10]; 4 mg/L in [11]. Further, the MIC in series [12] is 0.25 mg/L; in series [13] it was more than 16 mg/L; in [1] (ATCC700057, C. difficile ATCC strain 700057, read-out: MIC in the presence of 5% fecal material) it was 4 mg/L; in series [1] (ATCC700057, Diluent Brucella broth only, C. difficile ATCC 700057, read-out: MIC), 1 mg/L; in series [1] (ATCC700057, Diluent Brucella broth with feces (5% fecal slurry), C. difficile ATCC 700057, read-out: MIC), 4 mg/L; in series [17] it was more than 16 mg/L. In addition, the MIC was more than 16 mg/L in series [18]; more than 64 mg/L in series [19] (ATCC19434); more than 64 mg/L in [19] (ATCC19434, read-out: Aerobic Panel MIC); more than 64 mg/L in series [20]; 64 mg/L in series [21]; more than 64 mg/L in series [22]. Besides, the MIC was more than 64 mg/L in series [23] (ATCC29213); more than 64 mg/L in [23] (ATCC29213 / MSSA, read-out: Aerobic Panel MIC); more than 64 mg/L in [24] (ATCC33591); more than 64 mg/L in series [24] (ATCC33591 / MRSA, read-out: Aerobic Panel MIC); more than 64 mg/L in [25]; 64 mg/L in series [26]. The MIC is more than 64 mg/L in series [27]; more than 64 mg/L in series [28] (ATCC19615); more than 32 mg/L in series [28] (ATCC19615, read-out: Aerobic Panel MIC); 16 to 64 mg/L in [29]; more than 32 mg/L in [30]; more than 32 mg/L in series [31]. Besides, in series [1] (Brucella broth with feces vs Brucella broth only, C. difficile ATCC 700057), the “Fold increase in MIC” value is 4x. The “activity against C. difficile compared with vancomycin” value in series [1] (C. difficile) was “as active as vancomycin”. Besides, the “fold increase in MIC values in the presence of 5% fecal material” value in [1] (C. difficile ATCC strain 700057) was “four fold”. For the same molecule, the “levels detected in plasma” value in [14] is “most of which fell below the limit of quantification”. For the same molecule, the solubility in series [15] is approximately 300 mg/mL. Besides, in series [16], the “MIC values relative to those of OPT-80” value is “four to sixteen fold greater”.
